Data from patent US20060154243A1 (priority 2003, published 2006).

Columns and labels:
[1] = system: serum 1a (individual 1, early serum); format: binding, human
[2] = system: serum 1b (individual 1, late serum); format: binding, human
serum 2 (individual 2) = format: binding, human
serum 6 (individual 6) = format: binding, human
serum 37 (individual 37) = format: binding, human
serum 62 (individual 62) = format: binding, human
serum London = format: binding, human
serum SARS-yellow = format: binding, human
serum SARS-green = format: binding, human
[3] = system: control serum LUMC (pooled serum of ten healthy hospital workers); format: binding, human
[4] = system: control serum Blood-bank (commercial negative donor pooled serum); format: binding, human
[5] = system: sera SARS-green, SARS-yellow, 1a, 1b, 2, 6, 37, 62 and London; format: binding, human
[6] = system: rabbit serum obtained by immunizing with SARS-CoV strain Frankfurt 1; format: binding

Sequence | Binding of serum 1a to linear peptides of Orf14 of SARS-CoV TOR2 [1] | Binding of serum 1b to linear peptides of Orf14 of SARS-CoV TOR2 [2] | Binding of serum 2 to linear peptides of Orf14 of SARS-CoV TOR2 (serum 2 (individual 2)) | Binding of serum 6 to linear peptides of Orf14 of SARS-CoV TOR2 (serum 6 (individual 6)) | Binding of serum 37 to linear peptides of Orf14 of SARS-CoV TOR2 (serum 37 (individual 37)) | Binding of serum 62 to linear peptides of Orf14 of SARS-CoV TOR2 (serum 62 (individual 62)) | Binding of serum London to linear peptides of Orf14 of SARS-CoV TOR2 (serum London) | Binding of serum SARS-yellow to linear peptides of Orf14 of SARS-CoV TOR2 (serum SARS-yellow) | Binding of serum SARS-green to linear peptides of Orf14 of SARS-CoV TOR2 (serum SARS-green) | Control serum LUMC linear peptides [3] | Control serum LUMC looped peptides [3] | Control Serum Blood-Bank Looped peptides [4] | Control serum Blood-bank linear peptides [4] | Recognition of the peptide by sera of individuals infected by SARS-CoV, form recognized [5] | Recognition by the rabbit serum [6]
PPCYNFLKEQHCQKA | 0.3 | 0.2 | 0.1 | 0.2 | 0.3 | 0.2 | 0.1 | 0.0 | 0.1 | 0.1 | 0.6 | 0.8 | 0.2 | recognized in looped form | –
AAVKPLLAPHHVVAV | 0.8 | 0.6 | 1.0 | 0.7 | 0.9 | 0.9 | 0.8 | 0.8 | 0.6 | 1.0 | 0.7 | 0.6 | 1.0 | – | recognized by the rabbit serum
KASTQREAEAAVKPL | 0.3 | 0.3 | 0.3 | 0.3 | 0.3 | 0.2 | 0.2 | 0.1 | 0.1 | 0.3 | 0.6 | 0.6 | 0.3 | recognized in looped form | –
ASTQREAEAAVKPLL | 0.4 | 0.3 | 0.4 | 0.5 | 0.5 | 0.4 | 0.4 | 0.4 | 0.4 | 0.4 | 0.8 | 0.9 | 0.5 | recognized in looped form | –
NFLKEQHCQKASTQR | 0.4 | 0.3 | 0.4 | 0.4 | 0.5 | 0.3 | 0.4 | 0.3 | 0.3 | 0.7 | 0.7 | 0.6 | 0.5 | recognized in looped form | –
KEQHCQKASTQREAE | 0.4 | 0.3 | 0.4 | 0.3 | 0.4 | 0.2 | 0.3 | 0.2 | 0.1 | 0.3 | 0.8 | 0.9 | 0.3 | recognized in looped form | –
AVKPLLAPHHVVAVI | 0.6 | 0.4 | 0.5 | 0.5 | 0.7 | 0.5 | 0.5 | 0.6 | 0.3 | 0.6 | 0.7 | 0.7 | 0.7 | – | recognized by the rabbit serum
EAAVKPLLAPHHVVA | 0.6 | 0.5 | 0.7 | 0.5 | 0.7 | 0.6 | 0.8 | 0.6 | 0.6 | 0.8 | 0.7 | 0.8 | 0.6 | – | recognized by the rabbit serum
VKPLLAPHHVVAVIQ | 0.6 | 0.5 | 0.6 | 0.5 | 0.7 | 0.5 | 0.6 | 0.4 | 0.3 | 0.6 | 0.6 | 0.7 | 0.7 | – | recognized by the rabbit serum
PLLAPHHVVAVIQEI | 0.5 | 0.4 | 0.4 | 0.4 | 0.6 | 0.4 | 0.5 | 0.4 | 0.2 | 0.5 | 0.6 | 0.6 | 0.4 | – | –
QLLAAVGEILLLEWL | 0.5 | 0.4 | 0.4 | 0.3 | 0.6 | 0.4 | 0.4 | 0.4 | 0.1 | 0.6 | 0.5 | 0.6 | 0.4 | – | –
REAEAAVKPLLAPHH | 0.5 | 0.3 | 0.4 | 0.3 | 0.5 | 0.3 | 0.4 | 0.2 | 0.1 | 0.3 | 0.6 | 0.7 | 0.2 | – | –
HHVVAVIQEIQLLAA | 0.4 | 0.4 | 0.4 | 0.4 | 0.5 | 0.3 | 0.4 | 0.4 | 0.2 | 0.4 | 0.4 | 0.5 | 0.4 | – | –
